15 compounds from patent publication US20070010671A1, “Novel quinazoline derivatives and methods of treatment related to the use thereof” (priority 2003, published 2007) can be followed below.

Structures can show the parent of a compound that is named as a salt.

The first assay has as its target MCH receptor (Homo sapiens, UniProt Q99705). The assay is described as follows: High throughput functional screening FLIPR/FDSS6000: inhibition of MCH-evoked intracellular Ca2+ changes. Format: cell-based. The following applies: antagonist activity, 50 nM of MCH, FLIPR or FDSS; read-out: IC50. A digest of the protocol:
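Constitutively active non-endogenous MCH-R cells; Fluo4-AM 4 μM, 2.5 mM probenecid, 1 hr, 37° C; cpd 3 min, 37° C; MCH 50 nM (antagonist mode); kinetic Ca2+ read Ex488/Em530, 290 s.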
For the compound `CN(C)c1nc(N[C@H]2CC[C@@H](CNC(=O)Nc3c(Cl)cccc3Cl)CC2)nc2ccccc12` [Example 3, 1-(2,6-Dichloro-phenyl)-3-[cis-4-(4-dimethylamino-quinazolin-2-)ylamino)-cyclohexylmethyl]-urea hydrochloride], the IC50 stood at 4.9 nM.

Staying with this assay, now noted: class by percent of control at 10^-7 M or IC50.
As for `CN(C)c1nc(N[C@H]2CC[C@@H](CNC(=S)Nc3cccc(Br)c3)CC2)nc2ccccc12` [compound 581], the class is listed as 3 (Class 3: The value of percent of control at 10^−7 M was more than 60% or the value of IC50 was more than 200 nM.). Turning to `CN(C)c1nc(N[C@H]2CC[C@@H](CNC(=S)NCc3ccccc3F)CC2)nc2ccccc12` [compound 724], the class was 3 (Class 3: The value of percent of control at 10^−7 M was more than 60% or the value of IC50 was more than 200 nM.). Still for that read-out and setting: then `COc1cc(OC)c(NC(=O)NC[C@H]2CC[C@@H](Nc3nc(N(C)C)c4ccccc4n3)CC2)cc1Cl` [compound 563], with 3 (Class 3: The value of percent of control at 10^−7 M was more than 60% or the value of IC50 was more than 200 nM.). On the same count and under the same terms, with `CN(C)c1nc(N[C@H]2CC[C@@H](CNC(=S)NC(c3ccccc3)c3ccccc3)CC2)nc2ccccc12` [compound 708, N-[(cis-4-{[4-(dimethylamino)quinazolin-2-yl]amino}cyclohexyl)methyl]-N′-(diphenylmethyl)thiourea] the figure was 2 (Class 2: The value of percent of control at 10^−7 M was from 40% to 60% or the value of IC50 was from 50 nM to 200 nM.); with `CN(C)c1nc(N[C@H]2CC[C@@H](NC(=S)Nc3ccc(F)cc3Br)CC2)nc2ccccc12` [compound 383], 2 (Class 2: The value of percent of control at 10^−7 M was from 40% to 60% or the value of IC50 was from 50 nM to 200 nM.).

Still in this assay, the particulars now being: class by percent of control at 10^-7 M or by IC50; read-out: class.
As to `CN(C)c1nc(N[C@H]2CC[C@@H](CNC(=S)Nc3cccc4nsnc34)CC2)nc2ccccc12` [compound 815], the IC50 was greater than 200 nM. Turning to `CN(C)c1nc(N[C@H]2CC[C@@H](NC(=S)Nc3cccc(Br)c3)CC2)nc2ccccc12` [compound 157, N-(3-bromopheny)-N′-(cis-4-{[4-(dimethylamino)quinazolin-2-yl]amino}cyclohexyl)thiourea], the IC50 is greater than 200 nM. On the same count and under the same terms, with “N-[3-(dimethylamino)propyl]-N′-[(cis-4-{[4-(dimethylamino)-quinazolin-2-yl]amino}cyclohexyl)methyl]thiourea [compound 807]” the figure was greater than 200 nM. Same read-out and setting: with `CC(=O)c1ccc(NC(=S)N[C@H]2CC[C@@H](Nc3nc(N(C)C)c4ccccc4n3)CC2)cc1` [compound 154] the figure was greater than 200 nM. As for `COC(=O)c1ccc(NC(=O)N[C@H]2CC[C@@H](Nc3nc(N(C)C)c4ccccc4n3)CC2)cc1` [compound 845], the IC50 is greater than 200 nM. Turning to `CSc1ccc(NC(=S)N[C@H]2CC[C@@H](Nc3nc(N(C)C)c4ccccc4n3)CC2)cc1` [compound 182, N-(cis-4-{[4-(dimethylamino)quinazolin-2-yl]amino}cyclohexyl)-N′-[4-(methylthio)phenyl]thiourea], the IC50 lay in the range of 50 to 200 nM.

Staying with this assay, now noted: class by percent of control at 10^−7 M or by IC50; read-out: class.
On to `Cc1cc(C)cc(CNC(=O)[C@H]2CC[C@@H](Nc3nc(N(C)C)c4ccccc4n3)CC2)c1` [Example 1142, cis-4-{[4-(dimethylamino)quinazolin-2-yl]amino}-N-(3,5-dimethylbenzyl)cyclohexanecarboxamide], for which the IC50 was less than 50 nM. For the compound `CN(C)c1nc(N[C@H]2CC[C@@H](CNC(=O)c3cc(F)ccc3F)C2)nc2ccccc12` [Example 1129, N-[((1R,3S)-3-{[4-(dimethylamino)quinazolin-2-yl]amino}cyclopentyl)methyl]-2,5-difluorobenzamide], the IC50 lay within 50 to 200 nM. On the same count and under the same terms, with `CN(C)c1nc(N[C@H]2CC[C@@H](NC(=O)c3ccc(OC(F)(F)F)cc3)CC2)nc2cc(F)c(F)cc12` [Example 1211, N-(cis-4-{[4-(dimethylamino)-6,7-difluoroquinazolin-2-yl]amino}cyclohexyl)-4-(trifluoromethoxy)benzamide] the figure was greater than 200 nM.
